“And” between values parts separate entries of the source, which are not always exact repeats. Equal values may be shown once. Inconclusive results and toxic doses are left out.

This experiment deals with P388 leukemia ip, CD2F1 mice, survival T/C. Description: NCI In Vivo Anticancer Drug Screen. Data for tumor model P388 Leukemia (intraperitoneal) in CD2F1 (CDF1) mice. The settings on record: endpoint: median survival time, higher = longer survival. The method, boiled down:
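Mice carrying the transplanted tumor received test compound or vehicle. Survival was recorded in each group, and the value is the treated-group measurement divided by that of the vehicle-treated control group.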

The mark [1] stands for this setting: dose: 100.0 mg/kg/injection, schedule: Q01DX009 (ip), vehicle: saline with Tween-80.
Where [2] appears, read: dose: 50.0 mg/kg/injection, schedule: Q01DX005 (ip), vehicle: Klucel (hydroxypropylcellulose) (HPC).
[3] abbreviates: dose: 100.0 mg/kg/injection, schedule: Q01DX005 (ip), vehicle: Klucel (hydroxypropylcellulose) (HPC).
The mark [4] stands for this setting: dose: 200.0 mg/kg/injection, schedule: Q01DX005 (ip), vehicle: Klucel (hydroxypropylcellulose) (HPC).
Setting [5] is: dose: 60.0 mg/kg/injection, schedule: Q01DX005 (ip), vehicle: saline with Tween-80.
The mark [6] stands for this setting: dose: 120.0 mg/kg/injection, schedule: Q01DX005 (ip), vehicle: saline with Tween-80.
Setting [7] is: dose: 240.0 mg/kg/injection, schedule: Q01DX005 (ip), vehicle: saline with Tween-80.
[8] abbreviates: dose: 50.0 mg/kg/injection, schedule: Q01DX009 (ip), vehicle: saline.
The mark [9] stands for this setting: dose: 100.0 mg/kg/injection, schedule: Q01DX009 (ip), vehicle: saline.
[10] abbreviates: dose: 200.0 mg/kg/injection, schedule: Q01DX009 (ip), vehicle: saline.
[11] abbreviates: dose: 25.0 mg/kg/injection, schedule: Q01DX005 (ip), vehicle: Klucel (hydroxypropylcellulose) (HPC).

In the case of `C[C@@H]1CC(=O)C[C@H]2CCCCN21`, the T/C is, setting by setting: (dose: 12.5 mg/kg/injection, schedule: Q01DX005 (ip), vehicle: saline) 102 % of control; (dose: 25.0 mg/kg/injection, schedule: Q01DX005 (ip), vehicle: saline) 103 % of control; (dose: 50.0 mg/kg/injection, schedule: Q01DX005 (ip), vehicle: saline) 105 % of control.

Take `CC(C)(O)/C=C/C(=O)[C@](C)(O)[C@H]1[C@H](O)C[C@@]2(C)[C@@H]3CC=C4[C@@H](C=C(O)C(=O)C4(C)C)[C@]3(C)C(=O)C[C@]12C`: the T/C (dose: 0.25 mg/kg/injection, schedule: Q01DX005 (ip), vehicle: water) is 112 % of control; the T/C (dose: 0.25 mg/kg/injection, schedule: Q01DX010 (ip), vehicle: saline) was 100 % of control; the T/C (dose: 0.5 mg/kg/injection, schedule: Q01DX005 (ip), vehicle: water) was 100 % of control; the T/C (dose: 0.5 mg/kg/injection, schedule: Q01DX010 (ip), vehicle: saline) was 104 % of control; the T/C (dose: 1.0 mg/kg/injection, schedule: Q01DX005 (ip), vehicle: water) was 105 % of control; the T/C (dose: 1.0 mg/kg/injection, schedule: Q01DX010 (ip), vehicle: saline) was 109 % of control. Also, the T/C (dose: 2.0 mg/kg/injection, schedule: Q01DX005 (ip), vehicle: water) was 105 % of control.

Regarding `c1cnc2c(c1)Sc1ncccc1S2`, the T/C (dose: 50.0 mg/kg/injection, schedule: Q01DX009 (ip), vehicle: saline with Tween-80) was 96 % of control and the T/C under setting [1] is 92 % of control.

Turning to `COc1cc(CCC(C)=O)ccc1OC(=O)c1c(-c2c(F)cccc2Cl)noc1C`, the T/C under setting [2] is 91 % of control, the T/C under setting [3] is 91 % of control and the T/C under setting [4] is 91 % of control.

With `O=C1CSC(c2cccc(F)c2)N1c1nncs1` (stereo not given), the T/C reads like this: under setting [5], 98 % of control; under setting [6], 105 % of control; under setting [7], 106 % of control.

For `CCN1CNC(=O)NC1`, the T/C runs as follows: under setting [8], 112 % of control; under setting [9], 111 % of control; under setting [10], 100 % of control; (dose: 400.0 mg/kg/injection, schedule: Q01DX009 (ip), vehicle: saline) 118 % of control.

`CCCCNC(=O)C(C)OC(=O)C(CC)CCCC` (stereo not given): the T/C by setting is: under setting [11], 105 % of control; under setting [2], 100 % of control; under setting [3], 102 % of control; under setting [4], 105 % of control.

Regarding `COc1cc(/C(=C(\CC(=O)O)C(=O)O)c2ccc3c(c2)OCO3)cc(OC)c1OC`, the T/C reads like this: under setting [2], 102 % of control and 103 % of control; under setting [3], 103 % of control and 111 % of control; under setting [4], 99 % of control and 100 % of control.

`CCc1nc(N)nc(N)c1-c1ccc(N(C)C)c(N=[N+]=[N-])c1`: the T/C (dose: 15.0 mg/kg/injection, schedule: Q01DX005 (ip), vehicle: Klucel (hydroxypropylcellulose) (HPC)) was 96 % of control; the T/C (dose: 30.0 mg/kg/injection, schedule: Q01DX005 (ip), vehicle: Klucel (hydroxypropylcellulose) (HPC)) was 92 % of control; the T/C (dose: 60.0 mg/kg/injection, schedule: Q01DX005 (ip), vehicle: Klucel (hydroxypropylcellulose) (HPC)) is 105 % of control and 113 % of control.

Consider `Nc1ccc(F)cc1S`, for which the T/C under setting [1] was 118 % of control.

Turning to `COc1c(OC2OC(CO)C(O)C(O)C2O)cc2occ(-c3ccc4c(c3)OCO4)c(=O)c2c1O` (stereo not given), the T/C is 94 % of control (dose: 4.0 mg/kg/injection, schedule: Q01DX005 (ip), vehicle: saline with Tween-80); 101 % of control (dose: 8.0 mg/kg/injection, schedule: Q01DX005 (ip), vehicle: saline with Tween-80); 101 % of control (dose: 16.0 mg/kg/injection, schedule: Q01DX005 (ip), vehicle: saline with Tween-80); 95 % of control (dose: 32.0 mg/kg/injection, schedule: Q01DX005 (ip), vehicle: saline with Tween-80).

Take `Nc1nc(-c2cccc3ccccc23)cc2ccccc12`: the T/C was 124 % of control (dose: 12.5 mg/kg/injection, schedule: Q01DX009 (ip), vehicle: water); 150 % of control (dose: 100.0 mg/kg/injection, schedule: Q01DX009 (ip), vehicle: water); 166 % of control (dose: 200.0 mg/kg/injection, schedule: Q01DX009 (ip), vehicle: water).

Consider `O=C(Cn1nnc2ccccc21)N1CCN(c2ccccc2)CC1`, for which the T/C is 90 % of control under setting [5] and 87 % of control under setting [6].

Turning to `CC(=O)OCC1=C(C)CC(C(C)C2CCC3C4CC5OC56C(OC(C)=O)C(N5CC5)CC(=O)C6(C)C4CCC23C)OC1=O` (stereo not given), the T/C is, setting by setting: (dose: 3.12 mg/kg/injection, schedule: Q01DX005 (ip), vehicle: Klucel (hydroxypropylcellulose) (HPC)) 100 % of control; (dose: 6.25 mg/kg/injection, schedule: Q01DX005 (ip), vehicle: Klucel (hydroxypropylcellulose) (HPC)) 98 % of control; (dose: 12.5 mg/kg/injection, schedule: Q01DX005 (ip), vehicle: Klucel (hydroxypropylcellulose) (HPC)) 104 % of control; under setting [11], 112 % of control; under setting [2], 110 % of control.

Regarding `CC(C)NC(=O)OCc1c(COC(=O)NC(C)C)c2n(c1-c1ccc(Cl)c(Cl)c1)CCS2(=O)=O`, the T/C reads like this: (dose: 25.0 mg/kg/injection, schedule: Q01DX005 (ip), vehicle: saline with Tween-80) 106 % of control; (dose: 50.0 mg/kg/injection, schedule: Q01DX005 (ip), vehicle: saline with Tween-80) 97 % of control; (dose: 100.0 mg/kg/injection, schedule: Q01DX005 (ip), vehicle: saline with Tween-80) 88 % of control; (dose: 200.0 mg/kg/injection, schedule: Q01DX005 (ip), vehicle: saline with Tween-80) 86 % of control.

As to `COc1cc(C(O)CCBr)c(OC)cc1C` (stereo not given), the T/C was 100 % of control under setting [5], 100 % of control under setting [6] and 95 % of control under setting [7].

For `BrCC[N+]12CC[N+](CCBr)(CC1)C2` (tested in a mixture with another compound), the T/C reads like this: (dose: 5.0 mg/kg/injection, schedule: Q04DX003 (ip), vehicle: water) 107 % of control; (dose: 10.0 mg/kg/injection, schedule: Q04DX003 (ip), vehicle: water) 114 % of control; (dose: 20.0 mg/kg/injection, schedule: Q04DX003 (ip), vehicle: distilled water + Tween-80) 122 % of control; (dose: 20.0 mg/kg/injection, schedule: Q04DX003 (ip), vehicle: water) 100 % of control; (dose: 37.5 mg/kg/injection, schedule: Q04DX003 (ip), vehicle: water) 112 % of control; (dose: 40.0 mg/kg/injection, schedule: Q04DX003 (ip), vehicle: distilled water + Tween-80) 107 % of control. The T/C is 104 % of control (dose: 40.0 mg/kg/injection, schedule: Q04DX003 (ip), vehicle: water); 118 % of control (dose: 80.0 mg/kg/injection, schedule: Q04DX003 (ip), vehicle: distilled water + Tween-80); 110 % of control (dose: 80.0 mg/kg/injection, schedule: Q04DX003 (ip), vehicle: water); 116 % of control (dose: 160.0 mg/kg/injection, schedule: Q04DX003 (ip), vehicle: distilled water + Tween-80); 112 % of control (dose: 160.0 mg/kg/injection, schedule: Q04DX003 (ip), vehicle: water).

Take `[C-]#[O+].[Cl][Ru]([Cl])([Cl])([Cl])[Cl]`: the T/C by setting is: (dose: 12.5 mg/kg/injection, schedule: Q04DX003 (ip), vehicle: water) 108 % of control; (dose: 25.0 mg/kg/injection, schedule: Q04DX003 (ip), vehicle: water) 96 % of control; (dose: 50.0 mg/kg/injection, schedule: Q04DX003 (ip), vehicle: water) 105 % of control.

Regarding `Cc1cc(C)n(-c2cc(N3CCN(C)CC3)ncn2)n1`, the T/C was 98 % of control under setting [8], 98 % of control under setting [9] and 98 % of control under setting [10].

With `CC1=CC(=O)C(O)C2(C)C1CC1OC(=O)C(OC(=O)c3ccccc3)C3(O)C4(C)OCC13C2C(O)C4O` (stereo not given), the T/C is 101 % of control (dose: 0.75 mg/kg/injection, schedule: Q01DX005 (ip), vehicle: saline + alcohol); 101 % of control (dose: 1.5 mg/kg/injection, schedule: Q01DX005 (ip), vehicle: saline + alcohol); 108 % of control (dose: 3.0 mg/kg/injection, schedule: Q01DX005 (ip), vehicle: saline + alcohol); 105 % of control (dose: 6.0 mg/kg/injection, schedule: Q01DX005 (ip), vehicle: saline + alcohol).

Source of the values: PubChem BioAssay AID330 (DTP/NCI, 2004).
